Test results as given in ChEMBL document CHEMBL1148083, “Patuletin acetylrhamnosides from Kalanchoe brasiliensis as inhibitors of human lymphocyte proliferative activity” (J Nat Prod, 1994).
In brackets after ≈: the same amount, converted by molar mass.

Test: Inhibition of PHA-induced human lymphocyte proliferation
Format: functional, cell-based

Row | SMILES | IC50
1 | COc1c(O[C@@H]2O[C@@H](C)[C@H](O)[C@@H](O)[C@H]2OC(C)=O)cc2oc(-c3ccc(O)c(O)c3)c(O[C@@H]3O[C@@H](C)[C@H](OC(C)=O)[C@@H](O)[C@H]3O)c(=O)c2c1O [KALAMBROSIDE A] | 0.5 µg/mL (≈ 0.706 µM)
2 | COc1c(O[C@@H]2O[C@@H](C)[C@H](O)[C@@H](OC(C)=O)[C@H]2O)cc2oc(-c3ccc(O)c(O)c3)c(O[C@@H]3O[C@@H](C)[C@H](OC(C)=O)[C@@H](O)[C@H]3O)c(=O)c2c1O | 0.25 µg/mL (≈ 0.353 µM)
3 | COc1c(O[C@@H]2O[C@@H](C)[C@H](O)[C@@H](O)[C@H]2OC(C)=O)cc2oc(-c3ccc(O)c(O)c3)c(O[C@@H]3O[C@@H](C)[C@H](O)[C@@H](O)[C@H]3O)c(=O)c2c1O [KALAMBROSIDE B] | 1 µg/mL (≈ 1.5 µM)
4 | COc1c(O[C@@H]2O[C@@H](C)[C@H](O)[C@@H](OC(C)=O)[C@H]2O)cc2oc(-c3ccc(O)c(O)c3)c(O[C@@H]3O[C@@H](C)[C@H](O)[C@@H](O)[C@H]3O)c(=O)c2c1O | 10 µg/mL (≈ 15 µM)
5 | COc1c(O[C@@H]2O[C@@H](C)[C@H](O)[C@@H](O)[C@H]2O)cc2oc(-c3ccc(O)c(O)c3)c(O[C@@H]3O[C@@H](C)[C@H](OC(C)=O)[C@@H](O)[C@H]3O)c(=O)c2c1O [KALAMBROSIDE C] | > 10 µg/mL
